Test results: PubChem BioAssay AID602484 (Southern Research Specialized Biocontainment Screening …, 2012)

Test system: VEEV TrD infected cells, CPE inhibition
Assay: VEEV Trinidad donkey strain, infected cells, CPE inhibition, confirmatory IC50 (AID 602484)

SMILES: CN(C(=O)Cc1cccs1)c1nc2c(s1)CCCC2
- IC50: 2030 nM

SMILES: CN1CCN(Cc2nc3ccc([N+](=O)[O-])cc3c(=O)n2-c2ccccc2F)CC1
- IC50: 270 nM

SMILES: CCN1CCN(Cc2nc3ccc([N+](=O)[O-])cc3c(=O)n2-c2ccccc2F)CC1
- IC50: 370 nM
